Drawing on patent US20190322676A1, “CERAMIDE GALACTOSYLTRANSFERASE INHIBITORS FOR THE TREATMENT OF DISEASE” (BioMarin Pharmaceutical Inc., priority 2016, published 2019), this text covers IC50 for 21 compounds.

Counter-ions that a name gives are not always drawn.

One may read the IC50 as the concentration at which inhibition is half-maximal. Low values mean greater potency, high ones weaker potency.

The experiment addresses T1, human CGT (ceramide galactosyltransferase), CHO/CGT lysate (Homo sapiens, UniProt Q16880).
T1 construct: Full-length human CGT cDNA was cloned into the BamH1/Xho1 site of pcDNA3.1 (+); expressed in transfected cells; host or cells: Chinese hamster ovary (CHO) cells; lysate prepared with M-PER
T1 sequence (Q16880 21-541): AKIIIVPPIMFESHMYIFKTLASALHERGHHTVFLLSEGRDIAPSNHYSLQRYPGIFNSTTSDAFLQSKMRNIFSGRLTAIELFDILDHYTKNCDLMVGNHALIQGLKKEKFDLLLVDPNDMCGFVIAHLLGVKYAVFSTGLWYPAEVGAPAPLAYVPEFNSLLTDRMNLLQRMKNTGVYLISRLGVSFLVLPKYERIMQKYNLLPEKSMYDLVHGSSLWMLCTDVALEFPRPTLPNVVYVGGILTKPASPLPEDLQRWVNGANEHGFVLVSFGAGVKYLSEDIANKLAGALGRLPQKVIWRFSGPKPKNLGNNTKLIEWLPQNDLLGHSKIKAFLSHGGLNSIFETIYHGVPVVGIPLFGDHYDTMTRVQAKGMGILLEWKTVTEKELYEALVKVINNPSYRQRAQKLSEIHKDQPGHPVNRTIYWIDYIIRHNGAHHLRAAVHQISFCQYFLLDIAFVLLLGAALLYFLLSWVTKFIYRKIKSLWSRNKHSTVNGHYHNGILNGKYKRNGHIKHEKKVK
Put plainly: CGT enzyme assay, RapidFire/MS/MS readout (Table 1 ranges with one asterisk *). As to conditions: RapidFire method (range with one asterisk *). The class given is biochemical. In a few lines:
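Lysate (4 μg) of CHO cells transfected with full-length human CGT incubated 1 h at 37 °C with compound (0.001–50 μM) in pH 7.2 HEPES buffer with 10 μM C6-NBD-dihydro-ceramide, 17.5 μM UDP-galactose, Mg2+/Mn2+, CHAPS, BSA, 0.5% DMSO; ** set also contained 0.01% Tween 80. Product quantified by RapidFire/MS/MS, normalized to internal standard; IC50 from sigmoidal variable-slope fits.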
On to `NC1CC2CCC(C1)N2C(=O)[C@H](NS(=O)(=O)c1ccc2cc(OC3CCCC3)ccc2c1)C(F)(F)c1cccc(Br)c1` (stereo partly drawn) [Compound 65-2, N-((2S)-3-(3-amino-8-azabicyclo[3.2.1]octan-8-yl)-1-(3-bromophenyl)-1,1-difluoro-3-oxopropan-2-yl)-6-(cyclopentyloxy)naphthalene-2-sulfonamide], for which the IC50 was 10 to 30 µM. In turn, `NC1CC2CCC(C1)N2C(=O)[C@@H](NS(=O)(=O)c1ccc2cc(OC3CCCC3)ccc2c1)C(F)(F)c1cccc(-c2ccccc2)c1` (stereo partly drawn) [Compound 66-1, N-((2R)-1-([1,1′-biphenyl]-3-yl)-3-(3-amino-8-azabicyclo[3.2.1]octan-8-yl)-1,1-difluoro-3-oxopropan-2-yl)-6-(cyclopentyloxy)naphthalene-2-sulfonamide] gave a concentration for half-maximal inhibition (IC50) of less than 1 µM.

Regarding `NC1CC2CCC(C1)N2C(=O)[C@H](NS(=O)(=O)c1ccc2cc(OC3CCCC3)ccc2c1)C(F)(F)c1cccc(-c2ccccc2)c1` (stereo partly drawn) [Compound 66-2, N-((2S)-1-([1,1′-biphenyl]-3-yl)-3-(3-amino-8-azabicyclo[3.2.1]octan-8-yl)-1,1-difluoro-3-oxopropan-2-yl)-6-(cyclopentyloxy)naphthalene-2-sulfonamide], the IC50 lay within 1 to 10 µM.

Compound `CN([C@H](C(=O)N1C2CCC1CC(N)C2)C(F)(F)c1cccc(Br)c1)S(=O)(=O)c1ccc2cc(OC3CCCC3)ccc2c1` (stereo partly drawn) [Compound 67-1, N-((2R)-3-(3-amino-8-azabicyclo[3.2.1]octan-8-yl)-1-(3-bromophenyl)-1,1-difluoro-3-oxopropan-2-yl)-6-(cyclopentyloxy)-N-methylnaphthalene-2-sulfonamide] came in with a concentration for half-maximal inhibition (IC50) of 1 to 10 µM. Regarding `CN([C@@H](C(=O)N1C2CCC1CC(N)C2)C(F)(F)c1cccc(Br)c1)S(=O)(=O)c1ccc2cc(OC3CCCC3)ccc2c1` (stereo partly drawn) [Compound 67-2, N-((2S)-3-(3-amino-8-azabicyclo[3.2.1]octan-8-yl)-1-(3-bromophenyl)-1,1-difluoro-3-oxopropan-2-yl)-6-(cyclopentyloxy)-N-methylnaphthalene-2-sulfonamide], the half-inhibitory concentration (IC50) was 30 to 100 µM. Under `CCN([C@H](C(=O)N1C2CCC1CC(N)C2)C(F)(F)c1ccc(Br)cc1)S(=O)(=O)c1ccc2cc(OC3CCCC3)ccc2c1` (stereo partly drawn) [Compound 68-1, N-((2R)-3-(3-amino-8-azabicyclo[3.2.1]octan-8-yl)-1-(4-bromophenyl)-1,1-difluoro-3-oxopropan-2-yl)-6-(cyclopentyloxy)-N-ethylnaphthalene-2-sulfonamide] stands 1 to 10 µM; under `CCN([C@@H](C(=O)N1C2CCC1CC(N)C2)C(F)(F)c1ccc(Br)cc1)S(=O)(=O)c1ccc2cc(OC3CCCC3)ccc2c1` (stereo partly drawn) [Compound 68-2, N-((2S)-3-(3-amino-8-azabicyclo[3.2.1]octan-8-yl)-1-(4-bromophenyl)-1,1-difluoro-3-oxopropan-2-yl)-6-(cyclopentyloxy)-N-ethylnaphthalene-2-sulfonamide], 30 to 100 µM; under `NC1CCN(C(=O)[C@@H](NS(=O)(=O)c2ccc3cc(OC4CCCC4)ccc3c2)C(F)(F)c2cccc(-c3ccccc3)c2)CC1` [Compound 69-1, (R)—N-(1-([1,1′-biphenyl]-3-yl)-3-(4-aminopiperidin-1-yl)-1,1-difluoro-3-oxopropan-2-yl)-6-(cyclopentyloxy)naphthalene-2-sulfonamide trifluoroacetate], 1 to 10 µM. The figure for `NC1CCN(C(=O)[C@H](NS(=O)(=O)c2ccc3cc(OC4CCCC4)ccc3c2)C(F)(F)c2cccc(-c3ccccc3)c2)CC1` [Compound 69-2, (S)—N-(1-([1,1′-biphenyl]-3-yl)-3-(4-aminopiperidin-1-yl)-1,1-difluoro-3-oxopropan-2-yl)-6-(cyclopentyloxy)naphthalene-2-sulfonamide trifluoroacetate] is 30 to 100 µM. `NC1CC2CCC(C1)N2C(=O)[C@@H](NS(=O)(=O)c1ccc(OCC2CCCCC2)cc1)C(F)(F)c1cccc(-c2ccccc2)c1` (stereo partly drawn) [Compound 70-1, N-((2R)-1-([1,1′-biphenyl]-3-yl)-3-(3-amino-8-azabicyclo[3.2.1]octan-8-yl)-1,1-difluoro-3-oxopropan-2-yl)-4-(cyclohexylmethoxy)benzenesulfonamide trifluoroacetate]: the IC50 was 1 to 10 µM. Turning to `NC1CC2CCC(C1)N2C(=O)[C@H](NS(=O)(=O)c1ccc(OCC2CCCCC2)cc1)C(F)(F)c1cccc(-c2ccccc2)c1` (stereo partly drawn) [Compound 70-2, N-((2S)-1-([1,1′-biphenyl]-3-yl)-3-(3-amino-8-azabicyclo[3.2.1]octan-8-yl)-1,1-difluoro-3-oxopropan-2-yl)-4-(cyclohexylmethoxy) benzenesulfonamide trifluoroacetate], the IC50 lay within 1 to 10 µM.

Turning to `NC1CCN(C(=O)[C@@H](NS(=O)(=O)c2ccc3cc(OC4CCCC4)ccc3c2)C(F)(F)c2ccc(C(F)(F)F)cc2)CC1` [Compound 71-1, (R)—N-(3-(4-aminopiperidin-1-yl)-1,1-difluoro-3-oxo-1-(4-(trifluoromethyl)phenyl)propan-2-yl)-6-(cyclopentyloxy)naphthalene-2-sulfonamide], the IC50 was less than 1 µM.

In turn, `NC1CCN(C(=O)[C@H](NS(=O)(=O)c2ccc3cc(OC4CCCC4)ccc3c2)C(F)(F)c2ccc(C(F)(F)F)cc2)CC1` [Compound 71-2, (S)—N-(3-(4-aminopiperidin-1-yl)-1,1-difluoro-3-oxo-1-(4-(trifluoromethyl)phenyl)propan-2-yl)-6-(cyclopentyloxy)naphthalene-2-sulfonamide] showed an IC50 of 1 to 10 µM. The figure for `NC1CCN(C(=O)[C@@H](NS(=O)(=O)c2ccc(OCC3CCCCC3)cc2)C(F)(F)c2ccc(C(F)(F)F)cc2)CC1` [Compound 72-1, (R)—N-(3-(4-aminopiperidin-1-yl)-1,1-difluoro-3-oxo-1-(4-(trifluoromethyl)phenyl)propan-2-yl)-4-(cyclohexylmethoxy)benzenesulfonamide] is 1 to 10 µM. The figure for `NC1CCN(C(=O)[C@H](NS(=O)(=O)c2ccc(OCC3CCCCC3)cc2)C(F)(F)c2ccc(C(F)(F)F)cc2)CC1` [Compound 72-2, (S)—N-(3-(4-aminopiperidin-1-yl)-1,1-difluoro-3-oxo-1-(4-(trifluoromethyl)phenyl)propan-2-yl)-4-(cyclohexylmethoxy)benzenesulfonamide] is 30 to 100 µM; for `CN([C@H](C(=O)N1C2CCC1CC(N)C2)C(F)(F)c1ccc(C(F)(F)F)cc1)S(=O)(=O)c1ccc2cc(OC3CCCC3)ccc2c1` (stereo partly drawn) [Compound 73-1, N-((2R)-3-(3-amino-8-azabicyclo[3.2.1]octan-8-yl)-1,1-difluoro-3-oxo-1-(4-(trifluoromethyl)phenyl)propan-2-yl)-6-(cycyclopentyloxy)-N-methylnaphthalene-2-sulfonamide] it is less than 1 µM.

In turn, `CN([C@@H](C(=O)N1C2CCC1CC(N)C2)C(F)(F)c1ccc(C(F)(F)F)cc1)S(=O)(=O)c1ccc2cc(OC3CCCC3)ccc2c1` (stereo partly drawn) [Compound 73-2, N-((2S)-3-(3-amino-8-azabicyclo[3.2.1]octan-8-yl)-1,1-difluoro-3-oxo-1-(4-(trifluoromethyl)phenyl)propan-2-yl)-6-(cyclopentyloxy)-N-methylnaphthalene-2-sulfonamide] showed an IC50 of 1 to 10 µM. The figure for `NC1CC2CCC(C1)N2C(=O)[C@@H](NS(=O)(=O)c1ccc2c(cnn2CC2CCCC2)c1)C(F)(F)c1ccc(Br)cc1` (stereo partly drawn) [Compound 74-1, N-((2R)-3-(3-amino-8-azabicyclo[3.2.1]octan-8-yl)-1-(4-bromophenyl)-1,1-difluoro-3-oxopropan-2-yl)-1-(cyclopentylmethyl)-1H-indazole-5-sulfonamide] is 1 to 10 µM; for `NC1CC2CCC(C1)N2C(=O)[C@H](NS(=O)(=O)c1ccc2c(cnn2CC2CCCC2)c1)C(F)(F)c1ccc(Br)cc1` (stereo partly drawn) [Compound 74-2, N-((2S)-3-(3-amino-8-azabicyclo[3.2.1]octan-8-yl)-1-(4-bromophenyl)-1,1-difluoro-3-oxopropan-2-yl)-1-(cyclopentylmethyl)-1H-indazole-5-sulfonamide] it is 30 to 100 µM. On to `CN([C@H](C(=O)N1C2CCC1CC(N)C2)C(F)(F)c1ccc(Br)cc1)S(=O)(=O)c1ccc2c(cnn2CC2CCCC2)c1` (stereo partly drawn) [Compound 75-1, N-((2R)-3-(3-amino-8-azabicyclo[3.2.1]octan-8-yl)-1-(4-bromophenyl)-1,1-difluoro-3-oxopropan-2-yl)-1-(cyclopentylmethyl)-N-methyl-1H-indazole-5-sulfonamide], for which the IC50 was in the range of 1 to 10 µM. Under `CN([C@@H](C(=O)N1C2CCC1CC(N)C2)C(F)(F)c1ccc(Br)cc1)S(=O)(=O)c1ccc2c(cnn2CC2CCCC2)c1` (stereo partly drawn) [Compound 75-2, N-((2S)-3-(3-amino-8-azabicyclo[3.2.1]octan-8-yl)-1-(4-bromophenyl)-1,1-difluoro-3-oxopropan-2-yl)-1-(cyclopentylmethyl)-N-methyl-1H-indazole-5-sulfonamide] stands 30 to 100 µM.
